AFP-eGFP reporter expression data for two molecules are collected here from patent US20080152632A1, “Promoter-reporter cells for determining drug metabolism, drug interactions, and the effects of allotype variation” (Roslin Institute, priority 2005, published 2008).

The subject of the assay is AFP promoter in hepatocyte lineage cells. Briefly: AFP-eGFP reporter signaling in hepatocyte lineage cells generated using Activin. The assay is classed as cell-based, human. To be noted: H1-LZ-hAFP-eGFP derived cells; factor in HCM medium with HGF and EGF (1 μM dexamethazone from Day 11; 25 ng/mL Oncostatin M from Day 20). How it is done: The H1-LZ-hAFP-eGFP line of hES cells (Example 2) were expanded in mEF conditioned medium supplemented with 8 ng/mL bFGF on Matrigel™-coated plates. Once they reached 90-95% confluence, the cells were fed and cultured for one day (designated Day 1) with RPMI 1640 containing B27 supplement without vitamin A (GibcoBRL/Invitrogen # 12587-010), 1 mM sodium butyrate (Sigma Cat. no. B5887), and 100 ng/mL Activin A (R&D Systems #338-AC-025), and then for another two days in the same medium except having 0.5 mM sodium butyrate (Stage I). There was substantial cell death, with the remaining cells now having mesenchymal cell morphology, and some forming rosettes.
Starting on Day 4, the cells were fed daily with Knockout DMEM (GibcoBRL/Invitrogen #10829-018) containing 20% Knockout Serum Replacement (GibcoBRL/Invitrogen #10828-028), 2 mM L-glutamine, 1×nonessential amino acids, 0.1 mM β-mercaptoethanol, and 1% DMSO (Stage II). […] Starting on Day 20, the cells were fed on alternate days with HCM Bullet Kit, supplemented with 10 ng/mL human HGF, 10 ng/mL human EGF, and 25 ng/mL human Oncostatin M (Stage V).
In response to the medium components introduced on Day 11, about 60-70% of the cells began expressing eGFP, peaking by Day 19 or 20. Following the change of medium components on […], eGFP expression gradually disappeared.

Turning to `C[C@@H]1C[C@H]2[C@@H]3CCC4=CC(=O)C=C[C@]4(C)[C@@]3(F)[C@@H](O)C[C@]2(C)[C@@]1(O)C(=O)CO` [dexamethazone], the AFP-eGFP reporter expression result is listed as “expressed”.

B1: Oncostatin M: human Oncostatin M, late differentiation factor (protein, UniProt P13725 26-221, looked up)
Oncostatin-M: AAIGSCSKEYRVLLGQLQKQTDLMQDTSRLLDPYIRIQGLDVPKLREHCRERPGAFPSEETLRGLGRRGFLQTLNATLGCVLHRLADLEQRLPKAQDLERSGLNIEDLEKLQMARPNILGLRNNIYCMAQLLDNSDTAEPTKAGRGASQPPTPTPASDAFQRKLEGCRFLHGYHRFMHSVGRVFSKWGESPNRSRR
As for B1, the AFP-eGFP reporter expression entry is given as “decreased”.
